For experiment [1], the system named is mono-cultures of primary motoneurons. Description: Kainic acid toxicity in motoneuron mono-culture. It counts as cell-based.
Experiment [2] deals with SOD1 G93A mouse model of ALS. Kind of experiment: Survival (age at death) in SOD1 G93A mouse model of ALS. It counts as in vivo. To be noted: for survival proportions over time: non-differentiated by gender. An excerpt: High-copy B6SJL-Tg(SOD1*G93A)1Gur/J were obtained from Jackson Labs (Stock Number 002726; Bar Harbor, USA) that had originally been produced by Gurney et al. (Gurney, Pu et al. 1994). The colony was maintained by crossing C57BL/6 males harboring the transgene with wild-type SJL females. To verify presence of the transgene in the F1 progeny, tail biopsies were collected from 14-day-old pups and genotyped using PCR. At the age of 35-45 days mice were moved to the testing facility to acclimate to the new environment with a 12-h light/dark cycle before being assigned to a study.
At 50 days (presymptomatic, d50) or 80 days of age (symptomatic, d80) mice were separated into Fasudil-30 (Fas30)- and Fasudil-100 (Fas100)-Treatment or Vehicle Control (Veh) groups. Prior to any treatment, groups were constituted so as to minimize between-group variability by using the following criteria. Groups were balanced with respect to gender and body weight within gender. In addition, groups were age-matched and littermate-matched. […] The study was observer-blinded.
To reach sufficient CSF levels of Fasudil the inventors administered Fasudil (LC Labs, Woburn, USA; product number F-4660) at a low concentration of […] (Fas30) or at a high concentration of 50 mg (Fas100) in 100 ml drinking water. Control groups received the respective amount of isotonic drinking water termed as vehicle (Veh).
Chronic oral treatment with a low dose of Fasudil (F30) or a high dose of Fasudil (F100) was started either presymptomatically at day 50 or symptomatically at day 80 and continued until death.
Survival. Date and cause of death were recorded for each mouse. For humane reasons, animals are closely monitored and sacrificed as moribund prior to actual death using criteria for severe moribundity. To determine duration of survival reliably and humanely, the moribund state, defined as the inability of mice to right themselves 30 seconds after being placed on a side (a neurological score of 4) was used. The moribund mice were scored as “dead”, and were euthanized using carbon dioxide.
The data were then analyzed using Kaplan-Meier survival fit analysis with the Log-Rank and Wilcoxon tests for statistical significance. Cox proportional hazards analysis was also performed to determine hazard ratios and test for statistical significance of their differences using the Effect Likelihood Chi Square test. Statistical analyses were performed using Statistica 9.1 (StatSoft, Hamburg, Germany). P-values less than 0.05 were taken to be statistically significant.
The criteria to terminate the therapy study (later referred to as time of death) were fulfilled if the animals had reached the terminal neurological scoring or had lost a defined percentage of the maximal body weight. This time point then reflects the survival time of the animals whereas disease duration was measured from onset of disease until time of death.

The record followed here is US9980972B2, “Rho kinase inhibitors for use in treating familial amyotrophic lateral sclerosis” (GEORG-AUGUST-UNIVERSITÄT GÖTTINGEN STIFTUNG ÖFFENTLICHEN …, priority 2012, dated 2018).

For the compound `O=S(=O)(c1cccc2cnccc12)N1CCCNCC1` [Fasudil, 1-(5-isoquinolinesulfonyl)homopiperazine], in experiment [1], the “survival of KA exposed motoneurons” value is on record as “effectively protecting”. Further, the average survival in experiment [2] (female, presymptomatic (d50) treatment, Fas30 (30 mg/kg/day in drinking water), control 130.4 days) turned out to be 141.8 days. The survival result in experiment [2] (male, presymptomatic (d50), Fas30) is given as “trend in prolongation of survival”; in experiment [2] (symptomatic treatment start, female or male group) it was “not able to prolong survival”. In addition, the “survival proportions over time” value in experiment [2] (presymptomatic (d50), Fas30) is reported as “profited significantly from the treatment”; in experiment [2] (symptomatic (d80), Fas30), “did not show a statistically significant difference”; in experiment [2] (symptomatic (d80), Fas100 (100 mg/kg/day)) it was “did not show a statistically significant difference”. Also, the survival effect entry in experiment [2] (presymptomatic (d50), Fas100, compared with Fas30) was “less prominent”.
